The text below walks through data of patent publication US9751861B2, “N1-(3,3,3-trifluoro-2-hydroxo-2-methylpropionyl)-piperidine derivatives as inhibitors of pyruvate dehydrogenase kinase” (MERCK PATENT GMBH, priority 2013, dated 2017).

pIC50, pKd: −log10 of the molar value. Bounds are passed on as bounds.

The target in one assay is T1, human PDHK2 (12-407) (Homo sapiens, UniProt Q15119).
T1 construct: The human PDHK2 (12-407) was produced in E. coli; His-tag (cleaved yes); made in house; host or cells: E. coli
Description: Isothermal titration calorimetry (ITC) binding. The following applies: 30° C., pH 7.5. An outline of the steps: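 Untagged PDHK2 (12-407) from E. coli at 50 μM titrated into 5 μM compound at 30° C in pH 7.5 HEPES/KCl/MgCl2/phosphate buffer, ≤1% DMSO. One-site fit gave KA, ΔH^obs and N after heat-of-dilution correction; protein concentration referenced to a standard inhibitor and compound concentration adjusted to 1:1 stoichiometry.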
(In general: ITC needs no label: the signal is the heat of the interaction.)

The next assay has as its target T2, PDHK2 (Homo sapiens, UniProt Q15119).
T2 construct: purchased Carna Bioscience
Description: Biochemical activity testing of PDHK2: PDC inactivation assay. The following applies: human rec PDHK2, PDC from porcine heart, ATP 5 μM; read-out: IC50 PDHK2 (enzyme assay). An outline of the steps: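 Human recombinant PDHK2 (137 nM final) preincubated 30 min at RT with porcine heart PDC (20 mU/ml) and compound in pH 7.0 phosphate buffer, then phosphorylated with 5 μM ATP for 30 min at 37 °C. Residual PDC activity read as NADH fluorescence increase (Ex 340/Em 450) over 45 min; inhibitor-free reaction as full value, 3 mM DCA as zero, IC50 derived.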

The test system of a further assay is PDH-Elalpha (pSer300). Nature of the assay: Cellular immunofluorescence assay in HEK293T cells. The format is cell-based. Particulars: Homo sapiens, HEK-293T, 5 hours incubation, anti-PDH-E1alpha pSer300 immunofluorescence, read-out: IC50 (cell data). The procedure, abridged:
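HEK293T cells were exposed to compound for 5 hours, then fixed, permeabilised and immunostained for PDH-Elalpha pSer300 with Hoechst counterstain, read by laser scanning cytometry. Percent effect was normalized to a pharmacological inhibitor control and fitted to dose-response curves.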

In general, pKd refers to the Kd on a negative log10 scale, so that one unit is a factor of ten. A low value points to a large Kd. By pIC50 is commonly meant the negative decadic logarithm of the IC50, by convention in mol/L. `CC(C)(O)c1ccc(-n2nccc2C2CCN(C(=O)[C@@](C)(O)C(F)(F)F)CC2)c(F)c1` [Compound A92, (R)-3,3,3-Trifluoro-1-[4-[2-[2-fluoro-4-(1-hydroxy-1-methyl-ethyl)phenyl]-2H-pyrazol-3-yl]-1-piperidyl]-2-hydroxy-2-methyl-propan-1-one] gave a pKd at human PDHK2 (12-407) of more than 6.52. Moreover, the negative-log IC50 (pIC50) at PDHK2 and with PDH-Elalpha (pSer300) was 5.52 to 6.52 each time.

In turn, `C[C@@H]1CN(C(=O)[C@@](C)(O)C(F)(F)F)CC[C@@H]1c1ccn(-c2ccc(F)cc2)n1` [Compound A46, (R)-3,3,3-Trifluoro-1-{(3S,4S)-4-[1-(4-fluoro-phenyl)-1H-pyrazol-3-yl]-3-methyl-piperidin-1-yl}-2-hydroxy-2-methyl-propan-1-one] gave a pKd on human PDHK2 (12-407) of more than 6.52. Moreover, the pIC50 at PDHK2 is more than 6.52; in the assay on PDH-Elalpha (pSer300) it was 5.52 to 6.52.

For the compound `C[C@@](O)(C(=O)N1CCC(c2ccnn2-c2ccc(OC(F)F)cc2)CC1)C(F)(F)F` [Compound A96, (R)-1-[4-[2-[4-(Difluoromethoxy)phenyl]-2H-pyrazol-3-yl]-1-piperidyl]-3,3,3-trifluoro-2-hydroxy-2-methyl-propan-1-one], on human PDHK2 (12-407), the negative-log Kd (pKd) was more than 6.52. In addition, the pIC50 at PDHK2 and in the assay with PDH-Elalpha (pSer300) was 5.52 to 6.52 each time.

Regarding `CC(C)(C)c1ccc(-n2nccc2C2CCN(C(=O)[C@@](C)(O)C(F)(F)F)CC2)cc1` [Compound A21, (R)-1-{4-[2-(4-tert-Butyl-phenyl)-2H-pyrazol-3-yl]-piperidin-1-yl}-3,3,3-trifluoro-2-hydroxy-2-methyl-propan-1-one], the pKd on human PDHK2 (12-407) is more than 6.52. Also, the pIC50 at PDHK2 and in the assay on PDH-Elalpha (pSer300) was 5.52 to 6.52 each time.

Consider `Cc1cccc(-n2nccc2C2CCN(C(=O)[C@@](C)(O)C(F)(F)F)CC2)c1` [Compound A6, (R)-3,3,3-Trifluoro-2-hydroxy-2-methyl-1-[4-(2-m-tolyl-2H-pyrazol-3-yl)-piperidin-1-yl]-propan-1-one], for which the pKd on human PDHK2 (12-407) was more than 6.52. In addition, the pIC50 at PDHK2 and in the assay on PDH-Elalpha (pSer300) was 5.52 to 6.52 throughout.

As for `C[C@@H]1CN(C(=O)[C@@](C)(O)C(F)(F)F)CC[C@@H]1c1ccnn1-c1ccc(F)cc1` [Compound A107, (R)-3,3,3-Trifluoro-1-{(3S,4S)-4-[2-(4-fluoro-phenyl)-2H-pyrazol-3-yl]-3-methyl-piperidin-1-yl}-2-hydroxy-2-methyl-propan-1-one], the pKd at human PDHK2 (12-407) is more than 6.52. Also, the pIC50 at PDHK2 and in the assay on PDH-Elalpha (pSer300) was more than 6.52 in each case.

For `C[C@@](O)(C(=O)N1CCC(c2ccnn2-c2ccc(OCC(F)(F)F)cc2)CC1)C(F)(F)F` [Compound A49, (R)-3,3,3-Trifluoro-2-hydroxy-2-methyl-1-(4-{2-[4-(2,2,2-trifluoro-ethoxy)phenyl]-2H-pyrazol-3-yl}-piperidin-1-yl)-propan-1-one], at human PDHK2 (12-407), the pKd is more than 6.52. Moreover, the pIC50 on PDHK2 was more than 6.52; in the assay on PDH-Elalpha (pSer300), 5.52 to 6.52.

Compound `C[C@@](O)(C(=O)N1CCC(c2ccnn2-c2ccccc2F)CC1)C(F)(F)F` [Compound A4, (R)-3,3,3-Trifluoro-1-{4-[2-(2-fluoro-phenyl)-2H-pyrazol-3-yl]-piperidin-1-yl}-2-hydroxy-2-methyl-propan-1-one] gave a pKd at human PDHK2 (12-407) of more than 6.52. In addition, the negative-log IC50 (pIC50) was more than 6.52 at PDHK2 and 5.52 to 6.52 in the assay on PDH-Elalpha (pSer300).

On human PDHK2 (12-407), `CCc1ccc(-n2nccc2C2CCN(C(=O)[C@@](C)(O)C(F)(F)F)CC2)cc1` [Compound A24, (R)-1-{4-[2-(4-Ethyl-phenyl)-2H-pyrazol-3-yl]-piperidin-1-yl}-3,3,3-trifluoro-2-hydroxy-2-methyl-propan-1-one] showed a pKd of more than 6.52. The pIC50 on PDHK2 is more than 6.52; with PDH-Elalpha (pSer300) it was 5.52 to 6.52.

For the compound `C[C@@](O)(C(=O)N1CCC(c2cc(C(F)(F)F)nn2-c2ccccc2)CC1)C(F)(F)F` [Compound A43, (R)-1-[4-(2-Phenyl-5-trifluoromethyl-2H-pyrazol-3-yl)-piperidin-1-yl]-3,3,3-trifluoro-2-hydroxy-2-methyl-propan-1-one], at human PDHK2 (12-407), the pKd was more than 6.52. Besides, the negative-log IC50 (pIC50) on PDHK2 and in the assay with PDH-Elalpha (pSer300) was 5.52 to 6.52 in each case.

`COc1ccc(-n2nncc2C2CCN(C(=O)[C@@](C)(O)C(F)(F)F)CC2)cc1` [Compound A57, (R)-3,3,3-Trifluoro-2-hydroxy-1-{4-[3-(4-methoxy-phenyl)-3H-[1,2,3]triazol-4-yl]-piperidin-1-yl}-2-methyl-propan-1-one] had a pKd on human PDHK2 (12-407) of 5.52 to 6.52. For the same compound, the pIC50 at PDHK2 was 5.52 to 6.52; with PDH-Elalpha (pSer300), 4.30 to 5.52.

For the compound `C[C@@](O)(C(=O)N1CCC(c2ccnn2-c2ncc(F)cc2F)CC1)C(F)(F)F` [Compound A82, (R)-1-[4-[2-(3,5-Difluoro-2-pyridyl)-2H-pyrazol-3-yl]-1-piperidyl]-3,3,3-trifluoro-2-hydroxy-2-methyl-propan-1-one], the pKd at human PDHK2 (12-407) is more than 6.52. Moreover, the pIC50 is more than 6.52 at PDHK2 and 5.52 to 6.52 in the assay with PDH-Elalpha (pSer300).

`C[C@@](O)(C(=O)N1CCC(c2ccnn2-c2cccc(C#N)c2)CC1)C(F)(F)F` [Compound A8, 3-{5-[1-((R)-3,3,3-Trifluoro-2-hydroxy-2-methyl-propionyl)-piperidin-4-yl]-pyrazol-1-yl}-benzonitrile] had a negative-log Kd (pKd) on human PDHK2 (12-407) of more than 6.52. The negative logarithm of the IC50 (pIC50) on PDHK2 and in the assay with PDH-Elalpha (pSer300) was 5.52 to 6.52 each time.

For `C[C@@](O)(C(=O)N1CCC(c2ccnn2C2CCOCC2)CC1)C(F)(F)F` [Compound A116, (R)-3,3,3-Trifluoro-2-hydroxy-2-methyl-1-{4-[2-(tetrahydro-pyran-4-yl)-2H-pyrazol-3-yl]-piperidin-1-yl}-propan-1-one], the negative-log Kd (pKd) at human PDHK2 (12-407) is 5.52 to 6.52. Moreover, the results for the pIC50 on PDHK2 and in the assay with PDH-Elalpha (pSer300) were 5.52 to 6.52 and 4.30 to 5.52, respectively.

`C[C@@](O)(C(=O)N1CCC(c2ccnn2-c2ccc(OC(F)(F)F)cc2)CC1)C(F)(F)F` [Compound A95, (R)-3,3,3-Trifluoro-2-hydroxy-2-methyl-1-[4-[2-[4-(trifluoromethoxy)-phenyl]-2H-pyrazol-3-yl]-1-piperidyl]propan-1-one]: on human PDHK2 (12-407), the pKd was more than 6.52. Moreover, the negative-log IC50 (pIC50) on PDHK2 is more than 6.52; in the assay with PDH-Elalpha (pSer300), 5.52 to 6.52.

Take `CC(C)(O)c1ccc(-n2nccc2C2CCN(C(=O)[C@@](C)(O)C(F)(F)F)CC2)cc1` [Compound A20, (R)-3,3,3-Trifluoro-2-hydroxy-1-(4-{2-[4-(1-hydroxy-1-methyl-ethyl)-phenyl]-2H-pyrazol-3-yl}-piperidin-1-yl)-2-methyl-propan-1-one]: the pKd at human PDHK2 (12-407) was more than 6.52. The pIC50 at PDHK2 is more than 6.52; in the assay with PDH-Elalpha (pSer300) it was 5.52 to 6.52.

For `CC(C)c1ccc(-n2nccc2C2CCN(C(=O)[C@@](C)(O)C(F)(F)F)CC2)cc1` [Compound A22, (R)-3,3,3-Trifluoro-2-hydroxy-1-{4-[2-(4-isopropyl-phenyl)-2H-pyrazol-3-yl]-piperidin-1-yl}-2-methyl-propan-1-one], the pKd on human PDHK2 (12-407) was more than 6.52. The pIC50 at PDHK2 and with PDH-Elalpha (pSer300) was 5.52 to 6.52 each time.

In turn, `COc1ccc(-n2nccc2C2CCN(C(=O)[C@@](C)(O)C(F)(F)F)CC2)cc1` [Compound A2, (R)-3,3,3-Trifluoro-2-hydroxy-1-{4-[2-(4-methoxy-phenyl)-2H-pyrazol-3-yl]-piperidin-1-yl}-2-methyl-propan-1-one] gave a pKd at human PDHK2 (12-407) of more than 6.52. The negative-log IC50 (pIC50) on PDHK2 is more than 6.52; in the assay on PDH-Elalpha (pSer300), 5.52 to 6.52.

With `C[C@@H]1CN(C(=O)[C@@](C)(O)C(F)(F)F)CC[C@@H]1c1ccnn1-c1ccc(C#N)cc1` [Compound A111, 4-{5-[(3S,4S)-3-Methyl-1-((R)-3,3,3-trifluoro-2-hydroxy-2-methyl-propionyl)piperidin-4-yl]-pyrazol-1-yl}-benzonitrile], on human PDHK2 (12-407), the pKd is more than 6.52. The pIC50 on PDHK2 and with PDH-Elalpha (pSer300) was more than 6.52 each time.

In turn, `C[C@@](O)(C(=O)N1CCC(c2ccnn2-c2cccc(Cl)c2)CC1)C(F)(F)F` [Compound A12, (R)-1-{4-[2-(3-Chloro-phenyl)-2H-pyrazol-3-yl]-piperidin-1-yl}-3,3,3-trifluoro-2-hydroxy-2-methyl-propan-1-one] had a pKd at human PDHK2 (12-407) of more than 6.52. In addition, the negative logarithm of the IC50 (pIC50) at PDHK2 was 5.52 to 6.52; with PDH-Elalpha (pSer300) it was 4.30 to 5.52.

Compound `COc1ccc(-n2nccc2C2CCN(C(=O)C(C)(O)C(F)(F)F)CC2)c(F)c1` (racemic) [Compound A30, rac-3,3,3-Trifluoro-1-{4-[2-(2-fluoro-4-methoxy-phenyl)-2H-pyrazol-3-yl]-piperidin-1-yl}-2-hydroxy-2-methyl-propan-1-one] had a negative-log Kd (pKd) on human PDHK2 (12-407) of more than 6.52. Besides, the pIC50 at PDHK2 is more than 6.52; in the assay on PDH-Elalpha (pSer300), 5.52 to 6.52.

With `C[C@@](O)(C(=O)N1CCC(c2ccnn2[C@H]2CC[C@H](O)CC2)CC1)C(F)(F)F` [Compound A94, (R)-3,3,3-Trifluoro-2-hydroxy-1-[4-[2-(4-hydroxycyclohexyl)-2H-pyrazol-3-yl]-1-piperidyl]-2-methyl-propan-1-one], at human PDHK2 (12-407), the pKd is more than 6.52. Also, the pIC50 at PDHK2 is 5.52 to 6.52; with PDH-Elalpha (pSer300) it was 4.30 to 5.52.
